According to a melting point compilation (Tetko et al.; mined from patent text by program, amines drawn as free bases though some values may be those of a salt):

Row | SMILES | melting point [°C]
1 | CN(C)S(=O)(=O)c1cn(C)c2cc(C(F)(F)F)ccc2c1=O | 221 to 223
2 | Fc1ccccc1C1=NCc2cnc(-c3ccccc3)n2-c2ccc(Cl)cc21 | 241 to 243
3 | CC(C)C(=O)N(O)C(C)c1cc2ccccc2s1 (stereo not drawn) | 132 to 138
4 | CC[C@@H](O)[C@@H](CCCC(C)=O)OCc1ccccc1 | 30 to 31
5 | Cc1cc(OC2SCC(O)C(O)C2O)cc(C)c1-c1ccncc1 (stereo not drawn) | 106 to 107
6 | Oc1c(CCl)cc(Cl)cc1CCl | 88
7 | CCOC(=O)NC1N=C(c2ccc(Cl)cc2)c2oc3ccccc3c2NC1=O (stereo not drawn) | > 260
8 | CCCCC(O)CN1CCC2(CC1)CSC1=C(O2)c2ccccc2C(=O)C1=O (stereo not drawn) | 160 to 163
9 | CC(C)(C)OC(=O)N1CCC2(CC1)CC(c1ccc(C#N)cc1)=NO2 | 169 to 171
10 | Nc1ccc2ccc(Oc3ccccc3Br)nc2n1 | 206
11 | CC(=O)C(=Cc1c(-c2ccccc2)nc2sc(C)nn12)C(=O)N(C)C | 185 to 187
12 | CSC1=NCCN1CC(C)O (stereo not drawn) | 114 to 116
13 | CCc1c(Cl)cnc(N)c1F | 71 to 72
14 | Cc1cc(C2=NOC(c3cc(Cl)cc(Cl)c3)(C(F)(F)F)C2)ccc1C(=O)Nc1ncc(Br)cn1 (stereo not drawn) | 178 to 181
15 | CC1NC(=O)NN=C1c1ccc2c(c1)CCC(=O)N2C (stereo not drawn) | 240 to 242
16 | COC(=O)c1cc(C)cc(C#N)c1 | 68 to 69
17 | CS(=O)c1ccccc1C1CCCC2(C1)C(=O)Nc1ccccc12 (stereo not drawn) | 190 to 191
18 | OCC1CCC(CBr)CC1 (stereo not drawn) | 146 to 149
19 | Cc1cc(CCC(=O)O)no1 | 82 to 84
20 | NCCC(=O)NCCCO | 140 to 142
21 | O=C1NC(=O)C(=Cc2ccccc2)S1 | 246 to 248
22 | N#CCc1nc(-c2ccc(Cl)cc2)sc1-c1ccccc1 | 118 to 120
23 | CCOC(=O)c1c[nH]cc1-c1ccc(Cl)cc1 | 137 to 138
24 | Cc1ccc2c(c1)CC1(CCC(=O)CC1)C21OCCO1 | 124 to 127

Row | SMILES | melting point [°C]
25 | O=C(O)C(OCc1ccc(-c2ccc(Cl)cc2)cc1)(C(F)(F)F)C(F)(F)F | 90 to 92
26 | O=C1c2ccccc2CN1CCCN1CC=C(c2ccccc2)CC1 | 104
27 | C=CCC(C#N)(C#N)Cc1ccc(Cl)c(Cl)c1 | 71.8
28 | C[C@H]1c2onc(-c3ccc(Cl)cc3)c2CCC[C@H]1C(=O)O (relative stereo) | 149 to 150
29 | CC(=O)OC1CSC(Oc2ccc3sc(C)nc3c2)C(OC(C)=O)C1OC(C)=O (stereo not drawn) | 158
30 | CC(C)Cc1sc2c(c1C(=O)c1ccccc1)CCC2C(=O)O (stereo not drawn) | 106 to 108
31 | C[C@@H]1NC(=O)OC1(c1ccccc1)c1ccccc1 | 264 to 266
32 | COc1ccc(C2=NCc3nncn3-c3ccc(Cl)cc32)cc1 | 216 to 217
33 | O=C(O)c1cn(C2CC2)c2c(F)c(N3CCC(=NO)C3)c(F)c(F)c2c1=O | 300
34 | CN(C)C=C(C=O)c1cccc(F)c1 | 42 to 43.5
35 | O=C(O)c1ccc(F)c(F)c1Nc1ccc(I)cc1F | 199 to 201
36 | NS(=O)(=O)c1cscc1C(=O)O | 222 to 224
37 | CCOC(=O)N1CC(C)C2=NNC(=O)CC2C1 (stereo not drawn) | 101 to 103
38 | C[Si](C)(C)C#Cc1ccc(C=Cc2ccc(C#C[Si](C)(C)C)cc2)cc1 | 207 to 208
39 | CCCc1nc2c(N)nc3cc(OCCOCCCl)ccc3c2s1 | 101 to 103
40 | Oc1cc(Br)c(Cl)c(Br)c1 | 120 to 122
41 | COc1cccc(NC(=O)NC2N=C(c3ccccc3)c3ccccc3N(CCN(C)C)C2=O)c1 (stereo not drawn) | 213 to 215
42 | C[C@H](N=C(C(=O)N[C@@H](C)c1ccccc1)C(C)(C)C)c1ccccc1 | 96 to 97
43 | O=c1[nH]c2cc(F)ccc2n1-c1cc(Cl)ccc1O | 256 to 260
44 | CN(C)C1(c2ccccc2)CCC(=CC(=O)N2CCC(c3c[nH]c4ccc(Cl)cc34)CC2)CC1 (stereo not drawn) | 115 to 119
45 | COc1ccc(Nc2nc(NC(CO)CO)nc(N(C)C3CCN(C)CC3)n2)cc1Cl | 84
46 | O=C(Nc1nccs1)c1c([C@@H]2CCCN2)nc2c(C(F)(F)F)cccc2c1O | 196
47 | COCCCN1C(=O)CC(=O)Nc2ccccc21 | 137 to 138
48 | CN(C(=O)OC(C)(C)C)c1ccc(C#CCCCO)cc1 | 103 to 105

Other lines, results leading:

Row | melting point [°C] | SMILES
49 | 189 | COC(=O)c1ccc(Cn2c(=O)c3cc(C(=O)NCc4ccc(OC)cc4)ccc3n(C)c2=O)cc1
50 | 160 to 161 | COc1cc(NCCOc2ccccc2C)ccc1C(=O)N1CCCC(CC(=O)N2CCN(C)CC2)c2cc(Cl)ccc21 (stereo not drawn)
51 | 172 to 173 | CCN1c2ncc(CCc3ccc(C(=O)OC)cc3)cc2C(=O)N(C)c2cccnc21
52 | 236 to 240 | O=C1Cc2cc(NC(=O)C(=O)N3CCC(CCc4ccccc4)CC3)ccc2N1
53 | 210 to 213 | CCOC(=O)c1cn(-c2nc(NC(C)(C)C)c(F)cc2Cl)c2c(Cl)c(F)c(F)cc2c1=O
54 | 152 to 154 | CCOCc1nc2c(N)nc3cc(-c4cccnc4)ccc3c2n1CC1CCCCN1S(C)(=O)=O (stereo not drawn)
55 | 210 to 213 | Cn1cc(C2=C(c3cn(CO)c4ccccc34)C(=O)NC2=O)c2ccc([N+](=O)[O-])cc21
56 | 158 to 160 | CCCCOCCOc1ccc(-c2ccc3c(c2)C=C(C(=O)Nc2ccc([C@H](O)c4ccccn4)cc2)CCN3S(C)(=O)=O)cc1
57 | 241 to 245 | CCOc1cc2ncc3c(N)nc(-c4cccnc4)cc3c2cc1OCC
58 | 119 to 121 | CSCC(=O)[C@H](Cc1ccc(Cl)cc1)NC(=O)[C@H](CC(C)C)NC(=O)OCc1ccccc1
59 | 101 to 103 | O=C1CCC(c2ccc(-c3ccccc3Cl)o2)O1 (stereo not drawn)
60 | > 210 | COc1ccc2ccc(O)c(-c3nnc(Cl)c4ccccc34)c2c1
61 | 120 to 122 | COc1ccc2nc(-c3cccc(F)c3)cc(OP(=O)(O)O)c2c1OP(=O)(O)O
62 | 314 to 316 | O=C(O)c1ccc(-c2ccncc2)cc1[N+](=O)[O-]
63 | 138 | CS(=O)(=O)c1ccc(-c2cc(CCCO)nn2C2CCCCC2)cc1
64 | 158 to 160 | CCOC(=O)c1ccc2nc(-c3ccc(C)cc3)c(CN(C)C(=O)CC(C)C)n2c1
65 | 41 to 43 | COC(=O)c1ccc(SC)c(OC(C)C)c1
66 | 77 to 78 | CC(C)(C)OC(=O)[C@H](CSSC[C@H](NC(=O)OCc1ccccc1)C(=O)OC(C)(C)C)NC(=O)OCc1ccccc1
67 | 234 to 237 | Cc1cccc(NS(=O)(=O)c2ccc(NC3=C(Cl)C(=O)c4ccccc4C3=O)cc2)c1
68 | 160 to 162 | O=C1C(=O)c2ccccc2C2=C1SCC1(CCN(C(=O)c3cccc([N+](=O)[O-])c3)CC1)O2
69 | 205 to 208 | Nc1nc2ccnc(-c3cccc(C=O)c3)n2n1
70 | 143 | CCC(C(=O)O)c1cccc(C(=O)c2cc3ccsc3s2)c1 (stereo not drawn)
71 | 70 to 71 | CC(=O)n1c2ccccc2c2ccccc21
72 | 68 to 69 | Cc1oc(-c2ccccc2)nc1COc1ccc(CON)cc1
73 | 220 to 221 | COc1ccc(C(=O)Nc2ccccc2)cc1Nc1cccc([N+](=O)[O-])c1

Row | melting point [°C] | SMILES
74 | > 280 | O=C(Nc1ccc(F)cc1)Nc1nc(Nc2ccc(Cl)cc2)sc1C(=O)c1ccc(Cl)cc1Cl
75 | 123 to 124 | COc1ccc(CN2Cc3cncn3C(c3ccc(Br)cc3)C2=O)cc1 (stereo not drawn)
76 | 166 to 167 | COCOc1cc(Br)ccc1-c1cc(-c2cccc([N+](=O)[O-])c2)c(C#N)c(NC(=O)c2cccs2)n1
77 | 141 to 142 | O=C1CC2CCc3ccncc3C2=NN1c1ccc(C(F)(F)F)cc1 (stereo not drawn)
78 | 273 to 274 | CCCOc1ccccc1-c1nc2nc(NC(C)=O)ncc2c(=O)[nH]1
79 | 71 to 73 | Cc1cc(CCCCCCCOc2ccc(C3=NCC(CO)O3)cc2)on1 (stereo not drawn)
80 | 172 to 174 | CN(c1cccc2cc(C3=NCC(CCN)S3)[nH]c12)S(=O)(=O)c1cccs1 (stereo not drawn)
81 | 192 to 193 | Fc1cc(CC2(Cc3ccncc3)c3cccnc3-c3sccc32)ccn1 (stereo not drawn)
82 | 208 | CCOC(=O)C1=CC(C(=O)c2cc(C)ccc2O)=CN2CCc3c([nH]c4ccccc34)C12C(=O)OCC (stereo not drawn)
83 | 203 to 205 | CC1(c2ccccc2)C(=O)c2c(cc(OCC(=O)O)c(Cl)c2Cl)C1c1ccccc1 (stereo not drawn)
84 | 155 to 157 | N#CCN1C(=O)SC(=Cc2ccc(OCCc3ccccc3)cc2)C1=O
85 | 196 to 199 | C#CCNC(=O)c1cccc(F)c1Nc1nc(Nc2ccc3c(c2)OCCCN3C(C)=O)ncc1Cl
86 | 131 to 133 | O=C(Cc1ccccc1)Cc1ccc(Cl)c(Cl)c1
87 | 280 to 282 | O=C(O)c1ccc(C(=O)Nc2ccccc2C(c2ccc(O)cc2)c2ccc(O)cc2)cc1
88 | 184 | COC(=O)c1nn(Cc2cccc(OC)c2)c2c1CCc1cc(OCc3cncnc3)ccc1-2
89 | 110 to 112 | CC(C)c1cc(OCC(=O)N(Cc2ccccc2)Cc2ccccc2)cc2c1C(=O)N(COC(=O)c1c(Cl)cccc1Cl)S2(=O)=O
90 | 48 to 55 | O=C(NCCCCCCOC(=O)N1CCC(O)CC1)Oc1ccc(Oc2ccccc2)cc1
91 | 151 to 152 | O=C1C(=Cc2ccc(Cl)c(Cl)c2)CSCC1=Cc1ccc(Cl)c(Cl)c1
92 | 220 | COc1cc(-c2oc3ccc(CC(=O)NC(CC(C)C)C(N)=O)cc3c2SC)ccc1O (stereo not drawn)
93 | 114 | Cc1ccc(O)c(Cn2c(NCCCN3CCOCC3)nc3ccc(CNc4c(C)cc(CCC#N)cc4C)cc32)n1
94 | 166 | O=C(O)Cc1cccc(NC(=O)NCC(=O)N2[C@@H](c3cccc(O)c3)CC[C@H]2c2ccccc2)c1 (racemic)
95 | 221 to 222 | COc1cc(C(=O)N2Cc3ccc(C(=O)C(Cl)(Cl)Cl)n3Cc3ccccc32)ccc1-c1ccccc1C
96 | 160 to 163 | O=C1O[C@@H](Cn2ccnn2)CN1c1ccc(-c2ccc(C(O)C3CC3)nc2)c(F)c1 (stereo partly drawn)
97 | 129 to 131 | Cc1cc(SCc2cnc(-c3ccc(C(F)(F)F)cc3)nc2C2CC2)ccc1OC(C)(C)C(=O)O
98 | 260 | NC(=O)N1C(=O)C(C(=O)c2ccccc2)c2ncc(Cl)cc21 (stereo not drawn)
